{
  "source": "patent US20160154928A1",
  "about": "“SYSTEMS, METHODS, AND ENVIRONMENT FOR AUTOMATED REVIEW OF GENOMIC DATA TO IDENTIFY DOWNREGULATED AND/OR UPREGULATED GENE EXPRESSION INDICATIVE OF A DISEASE OR CONDITION” (IMMUNEERING CORPORATION, priority 2013, published 2016)",
  "key": {"female mouse model of AD": {"test_system": "female mouse model of AD", "settings": "cited from earlier work"}, "NEUROD6 expression": {"test_system": "NEUROD6 expression", "assay": "CMAP (Connectivity Map) expression profiles of cultured cells treated with compounds, searched for increased NEUROD6 expression (single-sample Wilcox test)", "format": "cell-based", "settings": "for p.val (compounds identified to upregulate enriched NEUROD6 expression): single-sample Wilcox test on CMAP expression profiles, cultured cells after treatment", "source_text": "The full CMAP (builds 01 and 02) datasets were obtained from the Broad Institute. […] The output p-values were adjusted for multiple hypothesis testing (FDR p value <0.05)."}, "SNAP25 expression": {"test_system": "SNAP25 expression", "assay": "CMAP (Connectivity Map) expression profiles of cultured cells treated with compounds, searched for increased SNAP25 expression (single-sample Wilcox test)", "format": "cell-based", "source_text": "The CMAP dataset is a large collection of microarray-based transcriptional signatures that includes over 7,000 expression profiles from cultured cells treated with 1,309 compounds. The full CMAP (builds 01 and 02) datasets were obtained from the Broad Institute. […] The output p-values were adjusted for multiple hypothesis testing (FDR p value <0.05)."}, "mouse model of AD": {"test_system": "mouse model of AD", "settings": "cited from earlier work"}, "mouse models of AD": {"test_system": "mouse models of AD", "settings": "cited from earlier work"}},
  "note": "Where “and” joins values, the source holds several entries; their conditions need not be identical. Equal values may be shown once.",
  "data": [
    {"smiles": "O=CC[C@@H](O)[C@H](O)[C@H](O)CO", "note": "[2-deoxy-D-glucose]", "values": [
      {"measurement": "pathology", "setting": "female mouse model of AD", "value": "reduce pathology"}
    ]},
    {"smiles": "CC(C)c1ccc2c(c1)c(SC(C)(C)C)c(CC(C)(C)C(=O)O)n2Cc1ccc(Cl)cc1", "note": "[MK-886]", "values": [
      {"measurement": "p.val (compounds identified to upregulate enriched NEUROD6 expression)", "setting": "NEUROD6 expression", "value": "2.46E−04"}
    ]},
    {"smiles": "CN(C(=O)C(Cl)Cl)c1ccc(O)cc1", "note": "[diloxanide]", "values": [
      {"measurement": "p.val (compounds identified to upregulate enriched SNAP25 expression)", "setting": "SNAP25 expression; single-sample Wilcox test on CMAP expression profiles, cultured cells after treatment", "value": "1.28E−04"}
    ]},
    {"smiles": "O=c1c(-c2ccc(O)cc2)coc2cc(O)cc(O)c12", "note": "[genistein]", "values": [
      {"measurement": "effect on NEUROD6 expression", "setting": "NEUROD6 expression; CMAP analysis, in words", "value": "significantly elevate expression of NEUROD6"}
    ]},
    {"smiles": "CCN1C[C@]2(C)CC[C@H](O)[C@]34C1[C@@H](C[C@H]23)[C@@]1(O)C[C@H](OC)[C@H]2C[C@@H]4[C@@H]1[C@H]2O", "note": "[karakoline]", "values": [
      {"measurement": "cognitive function", "setting": "mouse model of AD", "value": "improve cognitive function"}
    ]},
    {"smiles": "C=C1C[C@@H](O)[C@H](/C=C/[C@@H](O)C(C)(C)CCCC)[C@H]1C/C=C\\CCCC(=O)O", "note": "[meteneprost]", "values": [
      {"measurement": "p.val (compounds identified to upregulate enriched NEUROD6 expression)", "setting": "NEUROD6 expression", "value": "2.05E−04"}
    ]},
    {"smiles": "C[C@@H]1C[C@H]2O[C@@H]2/C=C\\C=C\\C(=O)Cc2c(Cl)c(O)cc(O)c2C(=O)O1", "note": "[monorden]", "values": [
      {"measurement": "p.val (compounds identified to upregulate enriched NEUROD6 expression)", "setting": "NEUROD6 expression", "value": "2.17E−04 and 2.82E−04"}
    ]},
    {"smiles": "CCCC(CCC)C(=O)O", "note": "[valproic acid]", "values": [
      {"measurement": "effect on SNAP25 expression", "setting": "SNAP25 expression; CMAP analysis, in words", "value": "significantly elevate SNAP25 expression"},
      {"measurement": "Aβ production", "setting": "mouse models of AD", "value": "limit Aβ production"},
      {"measurement": "behavioral deficits", "setting": "mouse models of AD", "value": "limit Aβ production and behavioral deficits"},
      {"measurement": "loss of neurons", "setting": "mouse models of AD", "value": "protect against loss of neurons"}
    ]}
  ]
}
